Results published in patent US9265795B2, “Cellular compositions for use in therapy” (RENEURON LIMITED, priority 2008, dated 2016).

Tested on: neural stem cell line, CTX0E03
Assay: Hypothermic / ambient shelf-life viability studies (trypan blue exclusion)
Format: cell-based, human
Conditions: in saline solution at ambient temperature
Method: Cultures of cells were expanded in T-flasks until 70 to 90% confluent. The spent medium was aspirated and then the cell monolayer washed with HBSS without magnesium or calcium ions (Invitrogen). The wash was aspirated and then the cells dissociated with recombinant bovine trypsin (Lonza TrypZean/EDTA) for 5 minutes at 37° C. The dissociated cell suspension was mixed with a trypsin inhibitor solution (0.55 mg/ml soybean trypsin inhibitor [Sigma], 1% HSA [Grifols], 25 U/ml benzon nuclease [VWR] in DMEM:F12 [Invitrogen]) and centrifuged for 5 minutes at ˜500×g. The supernatant was aspirated and the cell pellet washed in 50% HypoThermosol®-FRS (BioLife Solutions, Inc) in DMEM:F12 followed by centrifugation at ˜500×g for 5 minutes. The cell pellet was then suspended in HypoThermosol®-FRS at a concentration of 40,000 to 60,000 cells/μl. […]
Shelf-life studies have assessed the viability of the therapeutic and commercially manufactured neural stem cell line, CTX0E03 (Pollock et al., 2006), formulated in saline or using the method described in this invention using HTS-FRS. […]
Samples of cells were mixed 1:1 with 0.4% Trypan blue (Sigma) and loaded onto a haemocytometer. […] The viability and concentration of the sample is determined by counting the cells within a grid of the haemocytometer using 10× objective phase-contrast microscopy.

SMILES: Cc1c(C)c2c(c(C)c1O)CCC(C)(C(=O)O)O2 (stereo not shown) [Trolox]
- time neural stem cells are preserved: 2 days
